# EP0094245A2, “Dihydronaphthyridine derivatives, their preparation and compositions containing them” (SANKYO COMPANY LIMITED, priority 1982, dated 1983)
# Key:
# Male Wistar rats [1] = assay: Carrageenin oedema test for anti-inflammatory activity; type: in vivo; details: Rattus norvegicus, po, inhibitory rate, 100 mg/kg per os, paw volume 3 hours after carrageenin injection
# Procedure: Details of certain of the pharmacological tests are as follows: • Carrageenin oedema test for anti-inflammatory activity
# Male Wistar rats weighing 120-150 g were fasted overnight and then received a test compound per os as an aqueous tragacanth suspension. 30 minutes later, inflammation was induced by the subcutaneous injection of 0.05 ml of a 1% carrageenin suspension into the plantar tissue of a hind paw of each rat [Winter et al., Proc. Soc. Exp. Biol. Med., 111, 544 (1962)]. The anti-oedema activity was measured volumetrically, by assessing the response, as calculated from the following equation: [formula] where Vo and V represent, respectively, the paw volume immediately before and 3 hours after the carrageenin injection. The test compounds were administered at a dose of 100 mg/kg and the results are reported in the following Table as the inhibitory rate, that is the percentage inhibition of the […].
# Male Wistar rats [2] = assay: Pain test for analgesic activity (modified Randall-Selitto, Brewers' yeast inflamed paw); type: in vivo; details: po; number of effective animals / total number of animals in group; 50 mg/kg orally; pain threshold 1 and 2 hours after administration; effective = at least twice mean pain threshold of controls
# Procedure: Pain test for analgesic activity
# This test was conducted according to a modification of the method reported by L.O. Randall and J.J. Selitto in Arch. Int. Pharmacodyn., 11, 409 (1959), proposed by Winter and Flatake (1957).
# Male Wistar rats of 4 weeks of age and weighing 60-90 g were injected with 0.1 ml of a 20% by weight suspension of Brewers' yeast in the right hind paw. […] Each of these was given orally a test compound as an aqueous tragacanth suspension at a dose of 50 mg/kg. 1 and 2 hours after administration of the test compound, the pain threshold was determined by observing pain responses (such as struggling or squeaking) when the inflamed or normal paw was subjected to pressure by a machine (Ugo-Basile). […] The results are reported as the number of effective animals as a proportion of the total number of animals in each group.
SMILES,inhibition in vivo at 100 mg/kg (Male Wistar rats [1]),responders at 50 mg/kg (Male Wistar rats [2])
"COc1ccc2c(n1)C(C)=CC(C)(C)N2 [Compound No. 1, 6-methoxy-2,2,4-trimethyl-1,2-dihydro-1,5-naphthyridine]",62.6%,60%
"CCOc1ccc2c(n1)C(C)=CC(C)(C)N2 [Compound No. 2, 6-ethoxy-2,2,4-trimethyl-1,2-dihydro-1,5-naphthyridine]",58.2%,20%
"CCCCOc1ccc2c(n1)C(C)=CC(C)(C)N2 [Compound No. 4, 6-butoxy-2,2,4-trimethyl-1,2-dihydro-1,5-naphthyridine]",65.4%,60%
"CC1=CC(C)(C)Nc2ccc(Oc3ccccc3)nc21 [Compound No. 5, 2,2,4-trimethyl-b-phenoxy-1,2-dihydro-1,5-naphthyridine]",53.6%,60%
"CC1=CC(C)(C)Nc2ccc(Cl)nc21 [Compound No. 13, 6-chloro-2,2,4-trimethyl-1,2-dihydro-1,5-naphthyridine]",56.6%,60%
"COc1ccc2c(n1)C(C)=CC(C)(C)N2C [Compound No. 25, 6-methoxy-1,2,2,4-tetramethyl-1,2-dihydro-1,5-naphthyridine]",54.8%,40%
"COc1ccc2c(n1)C(C)=CC(C)(C)N2C(C)=O [Compound No. 27, 1-acetyl-6-methoxy-2,2,4-trimethyl-1,2-dihydro-1,5-naphthyridine]",53.3%,20%
"CC1=CC(C)(C)Nc2ccc(Oc3cccnc3)nc21 [compound 18, 2,2,4-trimethyl-6-(3-pyridyloxy)-1,2-dihydro-1,5-naphthyridine]",76%,80%
